Data on 81 compounds can be found in paper PMC12040169 (PLOS Biology, 2025).

SMILES strings stand for the structures.

The data set in a line: in vitro. The following applies: human, hela cells, % viability.

One may read the viability as a read-out of living cells in per cent, often relative to untreated cells. In the case of `O=C1CC(Nc2ccc(N3CCOCC3)cc2)C(=O)N1CCc1ccccc1` (stereo not drawn) [CBK269339], the viability at 28.5 h, 10 µM came to 111%.

As for `CC(CCN1CCN(CCO)CC1)c1ccccc1` (stereo not drawn) [CBK261876], the viability at 28.5 h, 10 µM was determined as 102%.

For the compound `C=CCN1C(=O)/C(=C/c2cc(Cl)c(OCc3cccc(C(=O)O)c3)c(OC)c2)C(=O)NC1=S` [CBK264877G], the viability at 28.5 h, 10 µM (bulk resorufin, single well) stood at 121%.

Take `O=C(CN1CCCCC1)Nc1sc2c(c1C(=O)Nc1ccccc1)CCCC2` [CBK267974]: the viability at 28.5 h, 10 µM worked out at 104%.

Regarding `CCCSCC(=O)Nc1nn(C)c2cccc(N3CCOCC3)c12` [CBK307354], the viability at 28.5 h, 10 µM was determined as 105%.

On to `O=S(=O)(Oc1ccccc1)c1ccc2c(c1)Cc1cc(S(=O)(=O)Oc3ccccc3)ccc1-2` [CBK231928], for which the viability at 28.5 h, 10 µM amounted to 88.5%.

As to `COc1ccc(Cn2nnnc2C(CC(C)C)N2CCC(C(N)=O)CC2)cc1` (stereo not drawn) [CBK084783], the viability at 28.5 h, 10 µM amounted to 90%.

As to `CN1CCC(N(C)C(=O)c2cc3oc(-c4ccccc4)nc3c(=O)n2C)C1` (stereo not drawn) [CBK200424T], the viability at 28.5 h, 10 µM came out at 93.9%.

For the compound `O=C(O)c1cccc(NS(=O)(=O)Cc2ccccc2[N+](=O)[O-])c1` [CBK038906], the viability at 28.5 h, 10 µM was 97.8%.

As for `O=C(Nc1cccc2cc[nH]c12)c1cc(F)c(Cl)cc1F` [CBK160080], the viability at 28.5 h, 10 µM was 82.4%.

On to `COc1ccc(C(C)C)cc1S(=O)(=O)NCCN1CCOCC1` [CBK266538], for which the viability at 28.5 h, 10 µM was 112%.

Take `CCCc1nn(CC(=O)NC(C)C)c(=O)c2cc3ccsc3n12` [CBK284147]: the viability at 28.5 h, 10 µM was 87.5%.

As to `CN(C)CCCN/C=C1/C(=O)NC(=S)N(c2ccc(Cl)cc2)C1=O` [CBK261828], the viability at 28.5 h, 10 µM (bulk resorufin, single well) was found to be 91.6%.

Take `O=C(c1ccc(O)nc1)N1CCN(Cc2cc(=O)n3ccsc3n2)CC1` [CBK306098]: the viability at 28.5 h, 10 µM came out at 86.3%.

`CC1CN(c2cc(CNc3nc4ccccn4c3C#N)ccn2)CCO1` (stereo not drawn) [CBK306423]: the viability at 28.5 h, 10 µM worked out at 78.7%.

With `CC(=O)N1N=C(COc2ccc(C)cc2)OC1c1ccc(Br)cc1` (stereo not drawn) [CBK294396], the viability at 28.5 h, 10 µM was 103%.

With `CC1=CC(c2ccccc2)N2N=C(NC(=O)CCCC(=O)O)NC2=N1` (stereo not drawn) [CBK287037], the viability at 28.5 h, 10 µM was determined as 81.1%.

On to `Cn1cnc2cc(NCc3cc(-c4ccc(F)cc4)c[nH]c3=O)ccc21` [CBK284693], for which the viability at 28.5 h, 10 µM worked out at 50.7%.

`COc1cccc(NC(=S)NCCCN2CCOCC2)c1` [CBK264548]: the viability at 28.5 h, 10 µM was 123%.

Take `CC(C)CNC(=O)C(=O)NCCc1ccc(F)cc1` [CBK264903]: the viability at 28.5 h, 10 µM was 105%.

Turning to `CN(C)c1ccc(/C=C(\C#N)c2nn(-c3ccccc3)c(N)c2C#N)cc1[N+](=O)[O-]` [CBK262532], the viability at 28.5 h, 10 µM is 83.4%.

On to `C[C@@H]1CN(C(=O)c2cn(C)c3ccccc23)C[C@H](C)O1` [CBK200235], for which the viability at 28.5 h, 10 µM was 88.9%.

Turning to `Cc1ccc(C(=O)O)cc1NC(=S)NC(=O)c1ccc(-c2ccccc2)cc1` [CBK264997], the viability at 28.5 h, 10 µM was 92.7%.

As for `CCOC(=O)CC(=O)CSc1nc(-c2cccnc2)ccc1C#N` [CBK267456], the viability at 28.5 h, 10 µM was determined as 89.6%.

For `Cn1nnnc1SCCNC(=O)Nc1ccc(CN2CCOCC2)cc1` [CBK307084], the viability at 28.5 h, 10 µM amounted to 97.4%.

Turning to `O=C(O)C1CCCN(C(=O)NCCOc2ccccc2)C1` (stereo not drawn) [CBK161366], the viability at 28.5 h, 10 µM worked out at 115%.

Consider `COCc1cc2n[nH]c(=O)n2c(-c2ccccc2)n1` [CBK288507], for which the viability at 28.5 h, 10 µM was 98.3%.

For `Cc1csc(C(C)NC(=O)c2cccnc2NCc2ccc3c(c2)OCO3)n1` (stereo not drawn) [CBK153425], the viability at 28.5 h, 10 µM is 108%.

For `O=C(Nc1ccc2ncccc2c1)c1ccc(OC(F)(F)F)cc1` [CBK159815], the viability at 28.5 h, 10 µM stood at 90.9%.

Consider `N/C(=N\c1nonc1N)NC(=O)c1ccccc1` [CBK006756], for which the viability at 28.5 h, 10 µM is 71.5%.

Turning to `CN(C)CCN(C)c1ccc(-c2cc3ccccc3o2)cn1` [CBK036820], the viability at 28.5 h, 10 µM turned out to be 107%.

Regarding `NC(=O)C1CCN(S(=O)(=O)c2ccc([N+](=O)[O-])cc2)CC1` [CBK261455], the viability at 28.5 h, 10 µM turned out to be 87%.

Take `CC12CCCC(=O)N1C(CO)C(c1ccccc1)O2` (stereo not drawn) [CBK011013]: the viability at 28.5 h, 10 µM is 91.2%.

As for `NS(=O)(=O)c1ccc(NC(=O)C2CCCN(S(=O)(=O)c3ccc(Cl)cc3)C2)cc1` (stereo not drawn) [CBK266813], the viability at 28.5 h, 10 µM is 91.7%.

As for `Cc1c(C)n2c(SCC(=O)N3CCCC3)nnc2[nH]c1=O` [CBK287686], the viability at 28.5 h, 10 µM came out at 99.4%.

Regarding `Cc1ccc(-c2ccc(CCC(=O)O)n2N=C(N)S)cc1` [CBK265870], the viability at 28.5 h, 10 µM came to 91%.

As to `Cc1nc(=O)c(-c2ccccc2)c(C)n1-c1ccc(OCC(=O)O)cc1` [CBK286615], the viability at 28.5 h, 10 µM stood at 106%.

As for `CCc1ccc(NC(=O)CN2CCN(c3ccccc3F)CC2)cc1` [CBK307549], the viability at 28.5 h, 10 µM turned out to be 112%.

As for `Cc1ccc(NC(=O)c2cnc3ccccc3c2)c(C)n1` [CBK200290], the viability at 28.5 h, 10 µM was 99.1%.

`O=C(CSc1nccn(-c2ccc(F)cc2)c1=O)Nc1ccc(F)cc1` [CBK287768]: the viability at 28.5 h, 10 µM came to 91.2%.

Regarding `CC(CN(C)C(=O)c1c[nH]nn1)Oc1ccc(Cl)c(Cl)c1` (stereo not drawn) [CBK306160], the viability at 28.5 h, 10 µM is 87.5%.

`CCCN1CCC(CNC(=O)c2cnn(-c3ccc(F)cc3)c2)CC1` [CBK282466]: the viability at 28.5 h, 10 µM was 112%.

For the compound `CC(=O)Nc1ccc(Nc2cc(-c3ccsc3)ncn2)cc1` [CBK090717], the viability at 28.5 h, 10 µM turned out to be 96.8%.

Take `CN1CCN(CCCNC(=O)C2(c3ccccc3)CCCC2)CC1` [CBK149521]: the viability at 28.5 h, 10 µM amounted to 106%.

With `CN1C(=O)COC[C@@H]1[C@H](O)c1ccc(NC(=O)C2CC2)cc1` [CBK289057], the viability at 28.5 h, 10 µM is 83.1%.

For the compound `Cn1cc(C2CCCCCN2C(=O)c2nn(C)cc2Cl)cn1` (stereo not drawn) [CBK284972], the viability at 28.5 h, 10 µM is 93.2%.

Take `CCN=C(S)NNC(=O)CCn1c2ccccc2c2ccccc21` [CBK262564]: the viability at 28.5 h, 10 µM came to 93.8%.

Turning to `CCCSc1ncc(Cl)c(C(=O)Nc2ccc(S(=O)(=O)N3CC(C)OC(C)C3)cc2)n1` (stereo not drawn) [CBK269055], the viability at 28.5 h, 10 µM stood at 100%.

Regarding `CCNC(=O)N1CC2(CCN(CC(N)=O)CC2)c2ccccc21` [CBK126701], the viability at 28.5 h, 10 µM is 95.3%.

Turning to `C#CCn1nnc2ccccc21` [CBK028164], the viability at 28.5 h, 10 µM came out at 104%.

`CC(=O)c1ccccc1-c1ccc(C(=O)N2CCN(C)CC2)c(NCC2CC2)n1` [CBK076613]: the viability at 28.5 h, 10 µM was determined as 92.8%.

Regarding `CCOC(=O)c1cnn(C2CCCN(Cc3c(C)n[nH]c3C)C2)c1` (stereo not drawn) [CBK304059], the viability at 28.5 h, 10 µM amounted to 88.6%.

Consider `Cc1nn(C)cc1C(C)NC(=O)c1ccc(CN(C)C)o1` (stereo not drawn) [CBK282083], for which the viability at 28.5 h, 10 µM is 96.1%.

Regarding `O=C(O)CCC(=O)N1CCCC2(CCN(C(=O)Cc3c[nH]c4ccccc34)C2)C1` (stereo not drawn) [CBK131572], the viability at 28.5 h, 10 µM stood at 91.2%.

For `Cc1cc(NC(=O)NC2CCOc3ccccc32)no1` (stereo not drawn) [CBK304581], the viability at 28.5 h, 10 µM is 93.8%.

For `Cc1ncc(C(=O)NC2(c3cccc(F)c3)CCCC2)c(C)n1` [CBK283273], the viability at 28.5 h, 10 µM worked out at 89.4%.

On to `CC(=O)N1CCN(c2ccc(NC(=O)CSc3ccc(C)cc3)cc2)CC1` [CBK269854], for which the viability at 28.5 h, 10 µM was found to be 95.6%.

With `O=C(Cn1cc(Br)ccc1=O)NC1CCN(Cc2ccccc2)CC1` [CBK305671], the viability at 28.5 h, 10 µM was 95.6%.

For `Cc1cccc(-c2ncc(C(=O)Nc3nccs3)cc2-c2ccco2)c1` [CBK037427], the viability at 28.5 h, 10 µM stood at 86.3%.

Regarding `Cn1nc(C2CCN(C(=O)c3cccs3)CC2)c2cccnc21` [CBK284925], the viability at 28.5 h, 10 µM turned out to be 82.9%.

`NC(=O)c1ccsc1NC(=O)C(F)(F)F` [CBK010915]: the viability at 28.5 h, 10 µM came out at 96.4%.

In the case of `Cc1ccc(NC(=O)c2cncc(-c3ccc(C(=O)N4CCOCC4)cc3)c2)c(O)c1` [CBK160208], the viability at 28.5 h, 10 µM was 84.3%.

For `CCOc1ccsc1C(=O)N1CCN(CC)CC1` [CBK200250], the viability at 28.5 h, 10 µM turned out to be 125%.

As to `Cc1ccc(C2=CCN(S(=O)(=O)c3ccc(F)cc3)CC2)o1` [CBK283571], the viability at 28.5 h, 10 µM turned out to be 93%.

As for `N#CCNS(=O)(=O)c1ccc(OC(F)(F)F)cc1` [CBK044841], the viability at 28.5 h, 10 µM came to 111%.

`Cc1cc(C)c(S(=O)(=O)NCCSCCC(=O)O)c(C)c1` [CBK013358]: the viability at 28.5 h, 10 µM was determined as 95.7%.

As to `O=C(N[C@@H](Cn1cc(Cl)c(=O)[nH]c1=O)C(=O)O)C1CCC1` [CBK289659], the viability at 28.5 h, 10 µM is 89.2%.

For `CN(CC(=O)O)S(=O)(=O)c1cccc2cccc(Cl)c12` [CBK268433], the viability at 28.5 h, 10 µM stood at 107%.

Consider `CCOC(=O)NC(=O)CSc1nc2ccccc2[nH]1` [CBK267443], for which the viability at 28.5 h, 10 µM was 91.9%.

As to `CCCNCCc1ccc(NC(=O)Nc2cc(F)cc3c2OCOC3)cc1` [CBK173887T], the viability at 28.5 h, 10 µM was found to be 97.8%.

For the compound `COc1ccc(OCC(=O)N2CCN(C3CCC(c4ccccc4)CC3)CC2)cc1` (stereo not drawn) [CBK263459], the viability at 28.5 h, 10 µM is 97.7%.

Regarding `CN(C)CC(=O)Nc1ccc(Oc2ccc(Cl)cc2)cc1` [CBK269459C], the viability at 28.5 h, 10 µM was 94.9%.

Turning to `C[C@H]1CC[C@H](C(=O)N2CCC[C@H]2C(=O)O)CC1` [CBK028320], the viability at 28.5 h, 10 µM amounted to 81.9%.

On to `CCCSc1cc(=O)oc2ccccc12` [CBK017493], for which the viability at 28.5 h, 10 µM was determined as 87.3%.

Take `O=C(O)c1cccc(Sc2cc(C(F)(F)F)ccn2)c1` [CBK093590]: the viability at 28.5 h, 10 µM came out at 88.7%.

For the compound `COCc1cc(CN2CCN(C)CC2)c(O)c2ncccc12` [CBK263546], the viability at 28.5 h, 10 µM came to 85.1%.

`Cn1c(=N)n(CC(=O)O)c2ccccc21` [CBK262926B]: the viability at 28.5 h, 10 µM was 90.4%.

In the case of `Cc1ccc2c(c1)C(=O)CC1(CCC3C(C(=O)N4CCCC4)C31)O2` (stereo not drawn) [CBK284951], the viability at 28.5 h, 10 µM was 98.3%.

`Cc1n[nH]c(C)c1CNC(=O)c1cccc2c(C)c(C)[nH]c12` [CBK283068]: the viability at 28.5 h, 10 µM is 88.9%.

As to `O=c1n(-c2cccc(C(F)(F)F)c2)ccn1S(=O)(=O)c1ccc(N2CCOCC2)nc1` [CBK106590], the viability at 28.5 h, 10 µM amounted to 104%.

On to `COc1ccc(OC)c(NC(=O)c2cc(=O)[nH]c3ccccc23)c1` [CBK297521], for which the viability at 28.5 h, 10 µM stood at 92.7%.
